# Laboratory results: PubChem BioAssay AID330 (DTP/NCI, 2004)
# Inconclusive results and toxic doses are left out.
# Tested on: P388 leukemia ip, CD2F1 mice, survival T/C
# Experiment: NCI In Vivo Anticancer Drug Screen. Data for tumor model P388 Leukemia (intraperitoneal) in CD2F1 (CDF1) mice
# Conditions: endpoint: median survival time, higher = longer survival
# Outline: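 Mice carrying the transplanted tumor received test compound or vehicle. Survival was recorded in each group, and the value is the treated-group measurement divided by that of the vehicle-treated control group.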
# [1] = dose: 25.0 mg/kg/injection, schedule: Q01DX009 (ip), vehicle: saline with Tween-80
# [2] = dose: 50.0 mg/kg/injection, schedule: Q01DX009 (ip), vehicle: saline with Tween-80
# [3] = dose: 100.0 mg/kg/injection, schedule: Q01DX009 (ip), vehicle: saline with Tween-80
# [4] = dose: 50.0 mg/kg/injection, schedule: Q01DX009 (ip), vehicle: saline
# [5] = dose: 100.0 mg/kg/injection, schedule: Q01DX009 (ip), vehicle: saline
# [6] = dose: 200.0 mg/kg/injection, schedule: Q01DX009 (ip), vehicle: saline
# [7] = dose: 60.0 mg/kg/injection, schedule: Q01DX005 (ip), vehicle: Klucel (hydroxypropylcellulose) (HPC)
# [8] = dose: 120.0 mg/kg/injection, schedule: Q01DX005 (ip), vehicle: Klucel (hydroxypropylcellulose) (HPC)
smiles,measurement,setting,value
C/C=C(\C)C(=O)OC1C(C)C2(O)C(C=C(CO)CC3(O)C(=O)C(C)=CC32)C2C(C)(C)C12OC(=O)CCCCCCCCC (stereo not given),T/C,"dose: 0.13 mg/kg/injection, schedule: Q01DX009 (ip), vehicle: saline + alcohol",124 % of control
same,T/C,"dose: 0.5 mg/kg/injection, schedule: Q01DX009 (ip), vehicle: saline + alcohol",124 % of control
CC(=Nc1ccccc1)C1=C(O)C(Cc2ccccc2)NC1=O (stereo not given),T/C,[1],106 % of control
CSC1(C)C(=O)Nc2cc([N+](=O)[O-])ccc21 (stereo not given),T/C,[1],100 % of control
same,T/C,[2],99 % of control
same,T/C,[3],113 % of control
N[N+]1(CCS(N)(=O)=O)CCOCC1,T/C,[4],110 % of control
same,T/C,[5],91 % of control
same,T/C,[6],96 % of control
COc1cc([N+](=O)[O-])cc2c1OC1(C=C2)Oc2ccccc2N1C (stereo not given),T/C,"dose: 15.0 mg/kg/injection, schedule: Q01DX005 (ip), vehicle: Klucel (hydroxypropylcellulose) (HPC)",103 % of control
same,T/C,"dose: 30.0 mg/kg/injection, schedule: Q01DX005 (ip), vehicle: Klucel (hydroxypropylcellulose) (HPC)",100 % of control
same,T/C,[7],94 % of control
same,T/C,[8],100 % of control
CC(=Nc1ccc(Cl)cc1N)c1c(O)cc(C)oc1=O,T/C,[7],91 % of control
same,T/C,[8],96 % of control
O=C1NC(=O)C2C3OC(C12)C1C2C(=O)NC(=O)C2C31 (stereo not given),T/C,"dose: 50.0 mg/kg/injection, schedule: Q01DX005 (ip), vehicle: saline with Tween-80",105 % of control
same,T/C,"dose: 100.0 mg/kg/injection, schedule: Q01DX005 (ip), vehicle: saline with Tween-80",104 % of control
CCCCCCCCCCCC(=O)/C=C/c1ccc(Cl)c(Cl)c1,T/C,"dose: 50.0 mg/kg/injection, schedule: Q01DX009 (ip), vehicle: Klucel (hydroxypropylcellulose) (HPC)",102 % of control
same,T/C,"dose: 100.0 mg/kg/injection, schedule: Q01DX009 (ip), vehicle: Klucel (hydroxypropylcellulose) (HPC)",90 % of control
CN(C(=O)c1ccccc1)C1CCCC(=O)CC1 (stereo not given),T/C,"dose: 25.0 mg/kg/injection, schedule: Q01DX005 (ip), vehicle: Klucel (hydroxypropylcellulose) (HPC)",105 % of control
same,T/C,"dose: 50.0 mg/kg/injection, schedule: Q01DX005 (ip), vehicle: Klucel (hydroxypropylcellulose) (HPC)",100 % of control
same,T/C,"dose: 100.0 mg/kg/injection, schedule: Q01DX005 (ip), vehicle: Klucel (hydroxypropylcellulose) (HPC)",99 % of control
same,T/C,"dose: 200.0 mg/kg/injection, schedule: Q01DX005 (ip), vehicle: Klucel (hydroxypropylcellulose) (HPC)",97 % of control
CCOc1cccc(Cl)n1,T/C,[2],104 % of control
same,T/C,[3],100 % of control
same,T/C,"dose: 200.0 mg/kg/injection, schedule: Q01DX009 (ip), vehicle: saline with Tween-80",90 % of control
Cc1ccc(-n2c(=S)n(-c3ccccc3C)c3nc4ccccc4nc2/c3=N\Nc2ccccc2)cc1,T/C,"dose: 60.0 mg/kg/injection, schedule: Q01DX005 (ip), vehicle: saline with Tween-80",100 % of control
same,T/C,"dose: 120.0 mg/kg/injection, schedule: Q01DX005 (ip), vehicle: saline with Tween-80",93 % of control
O=C(Nc1ccc(NC(=O)c2ccc(C3=NCCCN3)cc2)cc1)c1ccc(C2=NCCCN2)cc1,T/C,"dose: 12.5 mg/kg/injection, schedule: Q01DX009 (ip), vehicle: saline",168 % of control
same,T/C,"dose: 12.5 mg/kg/injection, schedule: Q04DX003 (ip), vehicle: saline with Tween-80",118 % of control
same,T/C,"dose: 25.0 mg/kg/injection, schedule: Q01DX009 (ip), vehicle: saline",250 % of control
same,T/C,[4],163 % of control
CC(C)(C)c1nnc2cccc(Cl)n12,T/C,"dose: 100.0 mg/kg/injection, schedule: Q01DX001 (ip), vehicle: Klucel (hydroxypropylcellulose) (HPC)",100 % of control
same,T/C,"dose: 200.0 mg/kg/injection, schedule: Q01DX001 (ip), vehicle: Klucel (hydroxypropylcellulose) (HPC)",99 % of control
same,T/C,"dose: 400.0 mg/kg/injection, schedule: Q01DX001 (ip), vehicle: Klucel (hydroxypropylcellulose) (HPC)",103 % of control
S=C(Nc1ccc(Br)cc1)SCc1ccc(Cl)c(Cl)c1,T/C,"dose: 50.0 mg/kg/injection, schedule: Q01DX009 (ip), vehicle: suspension in saline",105 % of control
same,T/C,"dose: 100.0 mg/kg/injection, schedule: Q01DX009 (ip), vehicle: suspension in saline",111 % of control
same,T/C,"dose: 200.0 mg/kg/injection, schedule: Q01DX009 (ip), vehicle: suspension in saline",110 % of control
N/C(=N\OC(=O)Nc1ccc(Cl)c(Cl)c1)c1ccccc1,T/C,[4],101 % of control
same,T/C,[5],104 % of control
same,T/C,[6],100 % of control
COc1ccc(-c2c3c(cc4cc5c(cc24)OCO5)C(=O)OC3)cc1OC,T/C,"dose: 12.0 mg/kg/injection, schedule: Q01DX009 (ip), vehicle: Klucel (hydroxypropylcellulose) (HPC)",110 % of control
same,T/C,"dose: 24.0 mg/kg/injection, schedule: Q01DX009 (ip), vehicle: Klucel (hydroxypropylcellulose) (HPC)",91 % of control
same,T/C,"dose: 48.0 mg/kg/injection, schedule: Q01DX009 (ip), vehicle: Klucel (hydroxypropylcellulose) (HPC)",86 % of control
same,T/C,"dose: 96.0 mg/kg/injection, schedule: Q01DX009 (ip), vehicle: Klucel (hydroxypropylcellulose) (HPC)",88 % of control
